Measured values reported in paper PMC10836395, “Investigation of how gate residues in the main channel affect the catalytic activity of Scytalidium thermophilum catalase” (Acta Crystallographica. Section D, Structural Biology, 2024).
Substitutions are numbered along the chain they refer to. Marks after values point to notes of the source that are not given here.

Tests used:
CATPO T188D variant [1] = molecular target: T1, CATPO T188D variant (Scytalidium thermophilum (Humicola insolens), UniProt M4GGR5, T207D); assay: biochemical
T1 sequence (M4GGR5 entry or part of it T207D): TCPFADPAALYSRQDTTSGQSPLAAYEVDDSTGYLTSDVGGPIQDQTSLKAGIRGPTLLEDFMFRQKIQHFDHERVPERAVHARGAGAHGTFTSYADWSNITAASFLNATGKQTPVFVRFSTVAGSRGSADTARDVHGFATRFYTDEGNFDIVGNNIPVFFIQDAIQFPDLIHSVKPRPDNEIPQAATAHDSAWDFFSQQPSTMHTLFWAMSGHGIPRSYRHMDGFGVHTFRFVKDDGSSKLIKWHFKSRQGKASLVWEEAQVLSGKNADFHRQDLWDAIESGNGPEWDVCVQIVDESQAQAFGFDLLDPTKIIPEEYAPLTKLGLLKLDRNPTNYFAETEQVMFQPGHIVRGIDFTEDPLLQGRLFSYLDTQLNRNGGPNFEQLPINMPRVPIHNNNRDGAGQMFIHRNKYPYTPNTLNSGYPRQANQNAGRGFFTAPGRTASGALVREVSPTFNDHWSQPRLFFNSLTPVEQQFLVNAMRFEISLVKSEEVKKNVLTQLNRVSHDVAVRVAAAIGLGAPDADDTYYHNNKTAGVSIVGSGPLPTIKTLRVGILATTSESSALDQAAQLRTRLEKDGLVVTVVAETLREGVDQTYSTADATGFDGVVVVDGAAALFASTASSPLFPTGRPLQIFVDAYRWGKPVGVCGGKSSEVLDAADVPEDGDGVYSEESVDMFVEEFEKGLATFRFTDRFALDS

CATPO E484A variant [2] = molecular target: T2, CATPO E484A variant (Scytalidium thermophilum (Humicola insolens), UniProt M4GGR5, E503A); assay: Substrate-specificity analysis of the phenol oxidase activity; type: biochemical
T2 sequence (M4GGR5 entry or part of it E503A): as the sequence (M4GGR5 entry or part of it T207D) above

CATPO T188D variant [3] = molecular target: T1, CATPO T188D variant; type: biochemical
CATPO E484D variant [4] = molecular target: T3, CATPO E484D variant (Scytalidium thermophilum (Humicola insolens), UniProt M4GGR5, E503D); type: biochemical
T3 sequence (M4GGR5 entry or part of it E503D): as the sequence (M4GGR5 entry or part of it T207D) above

CATPO T188I variant [5] = molecular target: T4, CATPO T188I variant (Scytalidium thermophilum (Humicola insolens), UniProt M4GGR5, T207I); type: biochemical
T4 sequence (M4GGR5 entry or part of it T207I): as the sequence (M4GGR5 entry or part of it T207D) above

CATPO [6] = molecular target: CATPO (Scytalidium thermophilum (Humicola insolens), UniProt M4GGR5); assay: Substrate-specificity analysis of the phenol oxidase activity; type: biochemical
Chain of CATPO (Scytalidium thermophilum (Humicola insolens), UniProt M4GGR5) (M4GGR5 entry or part of it): as the sequence (M4GGR5 entry or part of it T207D) above

CATPO T188I variant [7] = molecular target: T4, CATPO T188I variant; assay: biochemical
CATPO E484A variant [8] = molecular target: T2, CATPO E484A variant; assay: biochemical
CATPO T188A variant = CATPO T188A variant (Scytalidium thermophilum (Humicola insolens), UniProt M4GGR5, T207A); type: biochemical
Chain of CATPO T188A variant (M4GGR5 entry or part of it T207A): as the sequence (M4GGR5 entry or part of it T207D) above

CATPO E484I variant [9] = molecular target: T5, CATPO E484I variant (Scytalidium thermophilum (Humicola insolens), UniProt M4GGR5, E503I); type: biochemical
T5 sequence (M4GGR5 entry or part of it E503I): as the sequence (M4GGR5 entry or part of it T207D) above

CATPO T188F variant [10] = molecular target: T6, CATPO T188F variant (Scytalidium thermophilum (Humicola insolens), UniProt M4GGR5, T207F); type: biochemical
T6 sequence (M4GGR5 entry or part of it T207F): as the sequence (M4GGR5 entry or part of it T207D) above

CATPO E484I variant [11] = molecular target: T5, CATPO E484I variant; assay: biochemical
CATPO E484D variant [12] = molecular target: T3, CATPO E484D variant; assay: biochemical
CATPO T188F variant [13] = molecular target: T6, CATPO T188F variant; assay: biochemical
E484A = molecular target: T7, E484A (Mycothermus thermophilus, UniProt M4GGR5, E503A); assay: Spectrophotometric phenol oxidase assay without H2O2 at pH 7.0 and 60 °C, initial rates fitted to the Michaelis-Menten equation.; type: biochemical; conditions: read-out: Phenol oxidase K m; n = 3
T7 construct: recombinant, pET-28-TEV-CATPO; contains heme b; Rz 0.8
T7 sequence (M4GGR5 20-717 E503A): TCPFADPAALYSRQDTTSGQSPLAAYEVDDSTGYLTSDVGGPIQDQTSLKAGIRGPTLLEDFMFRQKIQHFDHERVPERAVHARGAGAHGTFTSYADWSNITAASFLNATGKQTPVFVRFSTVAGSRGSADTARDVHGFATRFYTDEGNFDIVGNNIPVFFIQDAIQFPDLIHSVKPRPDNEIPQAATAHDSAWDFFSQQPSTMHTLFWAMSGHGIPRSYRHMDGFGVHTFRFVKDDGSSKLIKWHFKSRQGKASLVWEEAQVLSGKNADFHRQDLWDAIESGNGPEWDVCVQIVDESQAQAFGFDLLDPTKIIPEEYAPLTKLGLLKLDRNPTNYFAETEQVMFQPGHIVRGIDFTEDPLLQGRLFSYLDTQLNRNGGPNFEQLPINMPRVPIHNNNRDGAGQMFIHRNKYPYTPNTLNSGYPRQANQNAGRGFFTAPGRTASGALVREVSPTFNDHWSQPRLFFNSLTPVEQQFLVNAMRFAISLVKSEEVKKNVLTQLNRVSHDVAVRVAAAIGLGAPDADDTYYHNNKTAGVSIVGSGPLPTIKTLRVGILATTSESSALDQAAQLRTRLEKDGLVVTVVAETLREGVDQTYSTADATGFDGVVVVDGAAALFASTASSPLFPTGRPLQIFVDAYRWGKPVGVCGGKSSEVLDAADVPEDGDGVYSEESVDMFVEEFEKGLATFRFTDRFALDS
Protocol: (§1) All inhibition assays were performed in triplicate.

CATPO [14] = molecular target: T8, CATPO (Mycothermus thermophilus, UniProt M4GGR5); assay: as above; type: biochemical; conditions: n = 3
T8 construct: recombinant, pET-28-TEV-CATPO; contains heme d; Rz 0.8
T8 sequence (M4GGR5 20-717): T7 sequence (M4GGR5 20-717 E503A) with A484E
Protocol: as §1

## Oc1cccc(O)c1O [Pyrogallol, pyrogallol]
CATPO T188D variant [1]
  Ki: 55 ± 5.5 mM
CATPO E484A variant [2]
  V max: 50000 ± 156 mM/min
  k cat/K m: 6000 ± 50 s^−1 M^−1 (×10^2)
CATPO E484A variant [2]; pH 7.0 (ABTS pH 5.0), 60°C
  K m: 36 ± 0.7 mM
CATPO T188D variant [3]
  V max: 15000 ± 150 mM/min
  k cat/K m: 5710 ± 200 s^−1 M^−1 (×10^2)
CATPO T188D variant [3]; pH 7.0 (ABTS pH 5.0), 60°C
  K m: 41 ± 1.0 mM
CATPO E484D variant [4]
  V max: 16800 ± 300 mM/min
  k cat/K m: 600 ± 50 s^−1 M^−1 (×10^2)
CATPO E484D variant [4]; pH 7.0 (ABTS pH 5.0), 60°C
  K m: 40 ± 0.5 mM
CATPO T188I variant [5]
  V max: 27400 ± 310 mM/min
  k cat/K m: 3470 ± 256 s^−1 M^−1 (×10^2)
CATPO T188I variant [5]; pH 7.0 (ABTS pH 5.0), 60°C
  K m: 38 ± 0.5 mM
CATPO [6]
  V max: 18450 ± 451 mM/min
  k cat/K m: 960 ± 65 s^−1 M^−1 (×10^2)
CATPO T188I variant [7]
  Ki: 62 ± 2.5 mM
CATPO E484A variant [8]
  Ki: 71 ± 4 mM
CATPO T188A variant
  V max: 16200 ± 410 mM/min
  k cat/K m: 660 ± 88 s^−1 M^−1 (×10^2)
CATPO T188A variant; pH 7.0 (ABTS pH 5.0), 60°C
  K m: 40 ± 1.0 mM
CATPO E484I variant [9]
  V max: 20300 ± 330 mM/min
  k cat/K m: 3060 ± 30 s^−1 M^−1 (×10^2)
CATPO E484I variant [9]; pH 7.0 (ABTS pH 5.0), 60°C
  K m: 40 ± 1.1 mM
CATPO T188F variant [10]
  V max: 28100 ± 760 mM/min
  k cat/K m: 3930 ± 250 s^−1 M^−1 (×10^2)
CATPO T188F variant [10]; pH 7.0 (ABTS pH 5.0), 60°C
  K m: 37 ± 0.5 mM
CATPO E484I variant [11]
  Ki: 58 ± 1.8 mM
CATPO E484D variant [12]
  Ki: 4.1 ± 0.7 mM
CATPO T188F variant [13]
  Ki: 64 ± 6 mM
E484A
  K m: 36 ± 0.7 mM
CATPO [14]
  K m: 40 ± 1.8 mM
